pIC50: −log10 of the molar value. Each block holds one compound with its values, some of them ahead of it.
Assays:
arthritic DBA/1 J mice = assay: Collagen-induced arthritis; type: in vivo, mouse; settings: 1 mg/kg, p.o., twice daily
Experimental: Protocol for Collagen-Induced Arthritis
Induction of Collagen-Induced Arthritis and Treatment with Compound of Example 19
All animal experiments were carried out in accordance with the guidelines of Committee for the Purpose of Control and Supervision of Experiments on Animals (CPCSEA). All animal experiments were approved by Institutional Animal Ethics Committee (IAEC) of Piramal Life Sciences Limited, Mumbai, India. Collagen-induced arthritis was induced in DBA/1 J mice as described in J. Exp. Med., 1985, 162, 637-46. Inbred male DBA/1 J mice (8-10 weeks of age, Jackson Laboratories, Bar Harbor, Me.) were immunized intradermally at the base of the tail with 200 μg type II collagen emulsified in Freund's Complete Adjuvant (FCA) on day 0. On day 17, immunized mice were randomized into different groups based on their body weight. From day 17 onwards, (i) one group of mice started receiving administration of compound of Example 19 (1 mg/kg, p.o., twice daily), (ii) a second group of mice started receiving administration of vehicle (0.5% CMC, p.o., twice daily), and (iii) a third group of mice started receiving administration of Enbrel (3 mg/kg, s.c., once daily). On day 21, all mice were boosted with 200 μg type II collagen emulsified in FCA. The mice (8 per treatment group) were monitored daily (from day 17 onwards) for the development and severity of arthritis using articular index and paw thickness as parameters. Articular index scoring was performed employing the following criteria—Fore limbs (Scale 0-3): 0, no redness or swelling; 1, redness but no swelling; 2, redness and swelling of the paw; 3, redness and severe swelling of the paw. […] Swelling of each of the paws of mice was measured with constant-tension, spring-loaded calipers (Mitutoyo, Aurora, Ill.). […]
Treatment continued daily until day 36 of the study, and the body weight of the animal along with the severity of inflammation for all 4 paws was monitored daily. […]

ALK1 (ACVRL1) = biological target: T1, ALK1 (ACVRL1) (Homo sapiens, UniProt P37023); assay: ALK1 inhibition assay (TR-FRET); type: biochemical; settings: 20 μM ATP, read-out: IC50 for ALK-1
T1 construct: recombinant human, catalytic domain of ALK1 (ACVRL1) or ALK2 (ACVR1) kinase GST fusion proteins; GST; purchased Invitrogen, USA
Experimental: (§1) Protocol for ALK1 and ALK2 Inhibition Assay
(§2) The in vitro kinase assays using recombinant human, catalytic domain of ALK1 (ACVRL1) or ALK2 (ACVR1) kinase GST fusion proteins (Invitrogen, USA) were conducted using a time-resolved fluorescence (TR-FRET) format. Kinase reactions were carried out in a 384-well plate format in a final volume of 20 μl. The standard enzyme reaction buffer consisted of 50 mM Tris HCL (pH: 7.4), 1 mM EGTA, 10 mM MgCl2, 2 mM DTT, 0.01% Tween-20, 20 nM of ALK1/ALK2 kinase enzyme (Invitrogen, USA), 50 nM of peptide substrate (DNA Topoisomerase 2 alpha (Thr 1342)U1 peptide, Perkin Elmer, USA) and 20 μM of ATP. Various concentrations of compound of Example 3a in DMSO (final concentration 2%), was added to give a final concentration of the compound ranging from 20 μM to 20 pM. [20 nM of enzyme and compound in various concentrations were pre incubated for 10 minutes at 23° C. followed by the addition of 50 nM of the peptide substrate]. Reaction was initiated with the addition of 20 μM of ATP. After incubation for 1 hour at 23° C., kinase reaction was stopped with the addition of 5 μl EDTA (final concentration of 10 mM in 20 μl). […] The IC50 values for compound of Example 3a were determined by a four-parameter sigmoidal curve fit (Sigma plot or Graph pad).

ALK2 (ACVR1) = biological target: T2, ALK2 (ACVR1) (Homo sapiens, UniProt Q04771); assay: ALK2 inhibition assay (TR-FRET); type: biochemical; settings: 20 μM ATP, read-out: IC50 for ALK-2
T2 construct: recombinant human, catalytic domain of ALK1 (ACVRL1) or ALK2 (ACVR1) kinase GST fusion proteins; GST; purchased Invitrogen, USA
Experimental: as §1, §2

KCL22 = assay: Cytotoxicity propidium iodide assay, KCL22; type: cell-based; settings: Homo sapiens, KCL-22; KCL22 (CML), 48 hours treatment; read-out: IC50 Values in μM, C6f
Experimental: The assay was designed as in the reference, Anticancer Drugs, 2002, 13, 1-8, the disclosure of which is incorporated herein by reference for the teaching of the assay.
Cells from cell lines (ATCC) as mentioned in the table given below were seeded at a density of 3000 cells/well in a white opaque 96-well plate. Following incubation at 37° C./5% CO2 for a period of 18-24 hours, the cells were treated with various concentrations (stock solution was prepared in DMSO and subsequent dilutions were made in media as per ATCC guidelines) of the compounds of the present invention for a period of 48 hours. At the end of treatment, the culture medium was discarded, the cells were washed with 1×PBS and 200 μL of […] propidium iodide was added to each well. […] For analysis, the plates were warmed to RT, allowed to thaw and were read in PoleStar fluorimeter with the fluorescence setting. The percentage of viable cells in the non-treated set of wells was considered to be 100 and the percentage viability following treatment was calculated accordingly. IC50 values were calculated from graphs plotted using these percentages. IC50 values for certain compounds of present invention are depicted in Table 1 and % Inhibition of certain compounds of present invention are depicted in Table 2.

T1 sequence (P37023 202-492 limits assumed): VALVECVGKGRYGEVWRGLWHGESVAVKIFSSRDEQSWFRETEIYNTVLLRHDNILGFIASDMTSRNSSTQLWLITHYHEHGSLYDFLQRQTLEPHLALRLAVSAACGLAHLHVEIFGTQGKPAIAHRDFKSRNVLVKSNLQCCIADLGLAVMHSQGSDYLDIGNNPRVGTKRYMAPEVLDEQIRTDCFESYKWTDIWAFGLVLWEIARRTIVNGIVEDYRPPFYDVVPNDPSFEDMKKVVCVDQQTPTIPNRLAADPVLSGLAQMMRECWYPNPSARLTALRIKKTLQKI
T2 sequence (Q04771 208-502 limits assumed): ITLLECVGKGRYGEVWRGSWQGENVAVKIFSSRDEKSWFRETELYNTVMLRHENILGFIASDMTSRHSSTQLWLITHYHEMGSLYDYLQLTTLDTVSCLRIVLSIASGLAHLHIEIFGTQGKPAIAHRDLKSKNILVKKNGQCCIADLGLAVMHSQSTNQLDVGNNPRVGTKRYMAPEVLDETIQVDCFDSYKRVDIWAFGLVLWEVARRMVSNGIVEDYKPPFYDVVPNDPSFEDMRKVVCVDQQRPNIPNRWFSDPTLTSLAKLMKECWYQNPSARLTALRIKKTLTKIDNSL

Structure (SMILES): COc1ccc(-n2c(=O)n(C)c3cnc4ccc(-c5cnc(N)c(C(F)(F)F)c5)cc4c32)cn1 [Example 19, 8-(6-Amino-5-(trifluoromethyl)pyridin-3-yl)-1-(6-methoxypyridin-3-yl)-3-methyl-1H-imidazo[4,5-c]quinolin-2(3H)-one]
Bone erosion and joint space narrowing (arthritic DBA/1 J mice; day 17 to day 36): distinctly protects against bone erosion and joint space narrowing
Joint destruction, hyperproliferative pannus formation and infiltration of inflammatory cells (arthritic DBA/1 J mice; day 17 to day 36): prominently diminishes joint destruction, hyperproliferative pannus formation and infiltration of inflammatory cells
Disease-associated increase in articular index and paw thickness (arthritic DBA/1 J mice; day 17 to day 36, FIGS. 4a and 4b): inhibits disease-associated increase in articular index and paw thickness

pIC50 (ALK1 (ACVRL1)): 7.38
pIC50 (ALK2 (ACVR1)): 7.33
Structure (SMILES): CS(=O)(=O)O.Cn1c(=O)n(-c2ccc(C(C)(C)C#N)nc2)c2c3cc(-c4cnc(N)c(C(F)(F)F)c4)ccc3ncc21 [Example 3a, 8-(6-Amino-5-(trifluoromethyl)pyridin-3-yl)-1-(6-(2-cyanopropan-2-yl)pyridin-3-yl)-3-methyl-2-oxo-2,3-dihydro-1H-imidazo[4,5-c]quinolin-5-ium methanesulfonate]

Structure (SMILES): Cn1c(=O)n(-c2ccc(C(C)(C)C#N)nc2)c2c3cc(-c4cnc(N)c(C(F)(F)F)c4)ccc3ncc21 [Example 3, 2-(5-(8-(6-Amino-5-(trifluoromethyl)pyridin-3-yl)-3-methyl-2-oxo-2,3-dihydro-1H-imidazo[4,5-c]quinolin-1-yl)pyridin-2-yl)-2-methylpropanenitrile]
IC50 (KCL22): 2 µM

Reference: patent publication US20130310374A1, “Substituted Imidazoquinoline Derivatives” (PIRAMAL ENTERPRISES LIMITED`, priority 2010, published 2013)
